Experimental data reported in patent EP0107214A2, “Pharmaceutical compositions containing benzoyl-phenyl ureas with anti-tumour activity” (DUPHAR INTERNATIONAL RESEARCH B.V, priority 1982, dated 1984).
Several values for one entry are separate records, joined by “and”; a condition that tells them apart may be missing. Identical values can stand only once. Like-named read-outs stand apart in the source and are kept apart here.

What was measured:
B-16 malignant melanoma = B-16 malignant melanoma in C57BL/6 mice, tumor growth after intraperitoneal injection; format: in vivo
Procedure: (§1) The compounds were tested by intraperitoneal injections of suspensions of the compounds in an aqueous solution of polyvinyl pyrrolidone.
Mice with malignant melanomas were injected with 20 mg or 40 mg diflubenzuron in suspension or with the suspension medium (blank).
Finally compound 2) was given in doses of 20 mg each on days 0, 1 and 2.
Animals with growing tumors were treated with 100 mg of diflubenzuron alone (suspended in an aqueous solution of polyvinylpyrrolidone) or in combination with a metabolic inhibitor or a metabolic inducer according to the schedule given in Table XI.

[1] = test system: Ridgeway Osteogenic Sarcoma (ROS); assay: Ridgeway Osteogenic Sarcoma (ROS) in AKR mice, tumor growth after intraperitoneal injection; format: in vivo
Procedure: (§2) Ridgeway Osteogenic Sarcoma (ROS) in AKR mice. The advantage of the use of such a localized, non-metastatic tumor for studies on drug effects is that pertuba- tions of tumor growth and longevity of the mice are attributable to a direct effect on the primary tumor. • III. Skin carcinoma (Ca 1025) in AKR mice. This tumor represents a second histologic cell type arising from skin and is less malignant than malignant melanoma.
as §1
Doses of diflubenzuron of 20 mg on day 0 (Table VI), 20 mg each on days 0 and 3; and 20 mg each on days 0, 1, 2, 5 and 6 (Table VII) were used in this test model. […]

Skin carcinoma (Ca 1025) = Skin carcinoma (Ca 1025) in AKR mice, tumor growth after intraperitoneal injection; format: in vivo; settings: single injection 20 mg
Procedure: as §2, §1
The compound PH 60-44 was also tested in this model.

melanoma B-16 cells = assay: Malignant melanoma B-16 cells in vitro, cell count by Coulter Counter; format: cell-based; settings: Mus musculus; for activity at 50 µg/mL: B16, 48 h, 50 ug/ml
Procedure: Cells of malignant melanomas B-16 grow as a monolayer. The doubling time of this type of cells in a cell--culture is 12 to 16 hours. For this experiment 6 multi-well tissue culture plates having a flat bottom with a surface area of 6 cm^2 appeared to be suitable and have been used.
On day 0 a quantity of melanoma B-16 cells were brought on the cell-culture plates.
The test compounds were sonicated and then incubated without cells for 3 hours at 37°C.
Then the compound to be tested was administered to the plates with melanoma B-16 cells in the desired quantity (each test was done in triplicate). Thereafter the plates were incubated in a C02-incubator for 20 hours at 37°C. Then the incubation was stopped by removing the culture medium containing the test compound, the cells were washed twice, and fresh culture medium was added.
48 Hours after starting the incubation step the number of cells on each plate was measured by means of a microcell Coulter Counter. The results so obtained have been expressed as "percentage of controll cell growth".
In the above experiment the compounds to be tested have been used in the form of a suspension. Since it is not quite clear how much of the active compounds is dissolved, the above results cannot be compared very well.
Therefore a number of compounds has been dissolved in ethanol.

[2] = 100 mg (20 mg days 0-4) after 2.4 mg cobaltous chloride (1.2 mg on days -2 and -1)
[3] = 100 mg (20 mg days 0-4) after 4 mg phenobarbital (1 mg on days -4 to -1)
[4] = 100 mg (20 mg days 0-4) after 6.4 mg 3-methylcholanthrene (1.6 mg on days -4 to -1)
[5] = 100 mg total, 20 mg each on day 0, 1, 2, 3 and 4
[6] = 2 x 20 mg, on day 0 and day 2 or 4
[7] = single injection 40 mg, i.p. suspension
[8] = 5 x 20 mg, days 0, 1, 2, 5 and 6

O=C(NC(=O)c1c(F)cccc1F)Nc1ccc(Cl)cc1 [Compound 1, 1-(2,6-difluorobenzoyl)-3-(4-chlorophenyl)urea]
% change in tumor mass day 1 (B-16 malignant melanoma; [2]): 14.4 (16) %
% change in tumor mass day 2 (B-16 malignant melanoma; [2]): 20.9 (12) %
% change in tumor mass day 3 (B-16 malignant melanoma; [2]): 36.4 (12) %
% change in tumor mass day 4 (B-16 malignant melanoma; [2]): 39.3 (12) %
% change in tumor mass day 5 (B-16 malignant melanoma; [2]): 59.7 (12) %
% change in tumor mass day 10 (B-16 malignant melanoma; [2]): 306 (12) %
% change in tumor mass day 14 (B-16 malignant melanoma; [2]): 782 (9) %
% change in tumor mass day 1 (B-16 malignant melanoma; [3]): -19.4 (23) %
% change in tumor mass day 2 (B-16 malignant melanoma; [3]): -10.4 (23) %
% change in tumor mass day 3 (B-16 malignant melanoma; [3]): 0.8 (23) %
% change in tumor mass day 4 (B-16 malignant melanoma; [3]): 21.7 (23) %
% change in tumor mass day 5 (B-16 malignant melanoma; [3]): 72.1 (23) %
% change in tumor mass day 10 (B-16 malignant melanoma; [3]): 293 (23) %
% change in tumor mass day 14 (B-16 malignant melanoma; [3]): 572 (10) %
% change in tumor mass day 1 (B-16 malignant melanoma; [4]): -29.2 (34) %
% change in tumor mass day 2 (B-16 malignant melanoma; [4]): -23.5 (34) %
% change in tumor mass day 3 (B-16 malignant melanoma; [4]): -20.6 (32) %
% change in tumor mass day 4 (B-16 malignant melanoma; [4]): -15.1 (29) %
% change in tumor mass day 5 (B-16 malignant melanoma; [4]): 5.7 (21) %
% change in tumor mass day 10 (B-16 malignant melanoma; [5]): 266 (17) %
% change in tumor mass day 14 (B-16 malignant melanoma; [5]): 378 (12) %
% change in tumor mass on day 11 (B-16 malignant melanoma; [5]): 891 (12) %
% change in tumor mass day 2 (B-16 malignant melanoma; 100 mg total, 20 mg each on day 0, 1, 2, 3 and 4, listed as diflubenzuron): -8.6 (17) % and -12.5 (22) % and -7.2 (12) %
% change in tumor mass day 1 (B-16 malignant melanoma; [6]): -11.7 (26) %
% change in tumor mass day 2 (B-16 malignant melanoma; [6]): 18.6 (26) %
% change in tumor mass day 3 (B-16 malignant melanoma; [6]): 92.6 (16) %
% change in tumor mass day 4 (B-16 malignant melanoma; [6]): 143 (26) %
% change in tumor mass day 5 (B-16 malignant melanoma; [6]): 178 (10) %
% change in tumor mass day 6 (B-16 malignant melanoma; [6]): 264 (26) %
% change in tumor mass day 15 (B-16 malignant melanoma; [6]): 1187 (16) %
reduction in tumor size within 24 hours of treatment (B-16 malignant melanoma; initial injection of 20 mg, two experiments, listed as diflubenzuron): 11.7% and 13.4%
initial decrease (tumor size) (B-16 malignant melanoma; injection of 40 mg): 22%
% change in tumor mass day 2 (B-16 malignant melanoma; single injection 20 mg, i.p. suspension): 18.6(26) %
% change in tumor mass day 1 (B-16 malignant melanoma; single injection 20 mg, i.p. suspension, listed as diflubenzuron): -11.7(26) % and -13.4(22) %
initial doubling time (in days) 0-2 days (B-16 malignant melanoma; single injection 20 mg, calculated from change within 48 hours after treatment, listed as diflubenzuron): 10.4 days and 10.4(26) days
% change in tumor mass day 1 (B-16 malignant melanoma; [7]): -22.4(8) %
% change in tumor mass day 2 (B-16 malignant melanoma; [7]): -14.7(8) %
initial doubling time (in days) 0-2 days (B-16 malignant melanoma; single injection 40 mg, negative = time for decrease to one-half size): -6.7(8) days
% change in tumor mass day 1 ([1]; 20 mg on day 0): 14.4 (29) %
% change in tumor mass day 2 ([1]; 20 mg on day 0): 48.5 (19) %
% change in tumor mass day 1 ([1]; 2 x 20 mg, days 0 and 3): 32.0 (10) %
% change in tumor mass day 3 ([1]; 2 x 20 mg, days 0 and 3): 104 (10) %
% change in tumor mass day 4 ([1]; 2 x 20 mg, days 0 and 3): 213 (10) %
% change in tumor mass day 5 ([1]; 2 x 20 mg, days 0 and 3): 298 (10) %
% change in tumor mass day 7 ([1]; 2 x 20 mg, days 0 and 3): 511 (10) %
% change in tumor mass day 14 ([1]; 2 x 20 mg, days 0 and 3): 1682 (10) %
% change in tumor mass day 21 ([1]; 2 x 20 mg, days 0 and 3): 4051 (10) %
% change in tumor mass day 1 [1, 8]: 12.2 (10) %
% change in tumor mass day 2 [1, 8]: 43.3 (10) %
% change in tumor mass day 5 [1, 8]: 285 (10) %
% change in tumor mass day 7 [1, 8]: 423 (10) %
% change in tumor mass day 14 [1, 8]: 2495 (10) %
% change in tumor mass day 21 [1, 8]: 8880 (8) %
% change in tumor mass day 1 (Skin carcinoma (Ca 1025)): -3.8 (35) %
% change in tumor mass day 2 (Skin carcinoma (Ca 1025)): 19.9 (7) %
activity at 50 µg/mL (melanoma B-16 cells; dissolved in ethanol, read-out: Percentage of controll cell growth (solution)): 48%
activity at 50 µg/mL (melanoma B-16 cells; suspension, read-out: Percentage of controll cell growth (suspension)): 79%
activity at 500 µg/mL (melanoma B-16 cells; B16, suspension, 20 hours incubation, cells counted at 48 hours, read-out: Percentage of controll cell growth when tested in an amount of 5 x 10^2 µg/ml): 78%
activity at 5000 µg/mL (melanoma B-16 cells; B16, suspension, 20 hours incubation, cells counted at 48 hours, read-out: Percentage of controll cell growth when tested in an amount of 5 x 10^3 µg/ml): 41%
